Test results taken from patent publication US20040034037A1, “Heteroaryl compounds useful as inhibitors of GSK-3” (priority 2002, published 2004).

Target: T1, GSK-3β (AA 1-420) (Homo sapiens, UniProt P49841)
T1 construct: GSK-3β (AA 1-420)
Assay: Ki determination for the inhibition of GSK-3 (standard coupled enzyme system)
Assay type: biochemical
Details: 20 μM ATP, 300 μM peptide, 30° C.
Experimental: Reactions were carried out in a solution containing 100 mM HEPES (pH 7.5), 10 mM MgCl2, 25 mM NaCl, 300 μM NADH, 1 mM DTT and 1.5% DMSO. Final substrate concentrations in the assay were 20 μM ATP (Sigma Chemicals, St Louis, Mo.) and 300 μM peptide (HSSPHQS(PO3H2)EDEEE, American Peptide, Sunnyvale, Calif.). Reactions were carried out at 30° C. and 20 nM GSK-30. Final concentrations of the components of the coupled enzyme system were 2.5 mM phosphoenolpyruvate, 300 μM NADH, 30 μg/ml pyruvate kinase and 10 μg/ml lactate dehydrogenase.
An assay stock buffer solution was prepared containing all of the reagents listed above with the exception of ATP and the test Compound of interest. The assay stock buffer solution (175 μl) was incubated in a 96 well plate with 5 μl of the test compound of interest at final concentrations spanning 0.002 μM to 30 μM at 30° C. for 10 minutes. […] The reaction was initiated by the addition of 20 μl of ATP (final concentration 20 μM). Rates of reaction were obtained using a Molecular Devices Spectramax plate reader (Sunnyvale, Calif.) over 10 minutes at 30° C. The Ki values were determined from the rate data as a function of inhibitor concentration.

T1 sequence (P49841 whole entry, the tested form may be a part): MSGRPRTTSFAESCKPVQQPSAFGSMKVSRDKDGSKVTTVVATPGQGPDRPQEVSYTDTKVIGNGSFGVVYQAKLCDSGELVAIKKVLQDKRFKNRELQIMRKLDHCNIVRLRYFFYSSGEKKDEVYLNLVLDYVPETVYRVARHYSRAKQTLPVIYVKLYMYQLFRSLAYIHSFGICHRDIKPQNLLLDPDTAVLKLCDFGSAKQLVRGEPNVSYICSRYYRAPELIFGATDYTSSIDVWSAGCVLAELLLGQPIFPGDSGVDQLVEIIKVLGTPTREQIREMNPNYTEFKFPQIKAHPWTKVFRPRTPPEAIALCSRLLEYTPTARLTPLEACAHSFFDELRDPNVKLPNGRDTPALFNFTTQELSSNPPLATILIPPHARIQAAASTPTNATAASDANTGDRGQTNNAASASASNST

Ki, < 1 µM:
CC(C#N)n1c(-c2nonc2N)nc2ccccc21 (racemic) [Compound I-51]
CCCn1c(-c2nonc2N)nc2ccccc21 [Compound I-7, 4-(1-Propyl-1H-benzoimidazol-2-yl)-furazan-3-ylamine]
C=CCn1c(-c2nonc2N)nc2ccccc21 [Compound I-9, 4-(1-Allyl-1H-benzoimidazol-2-yl)-furazan-3-ylamine]
CC(C)n1c(-c2nonc2N)nc2ccccc21 [Compound I-11, 4-(1-Isopropyl-1H-benzoimidazol-2-yl)-furazan-3-ylamine]
N#CCn1c(-c2nonc2N)nc2ccccc21 [Compound I-13, [2-(4-Amino-furazan-3-yl)-benzoimidazol-1-yl]-acetonitrile]
Nc1nonc1-c1nc2ccccc2n1CC(=O)Nc1ccc(F)c(F)c1 [Compound I-19, 2-[2-(4-Amino-furazan-3-yl)-benzoimidazol-1-yl]-N-(3,4-difluoro-phenyl)-acetamide]
Nc1nonc1-c1nc2ccccc2n1CC1CC1 [Compound I-32, 1-Cyclopropylmethyl-2-[(4-amino)-1,2,5-oxadiazol-3-yl]benzimidazole]
Nc1nonc1-c1nc2ccccc2n1CC(F)(F)F [Compound I-37, 1-(2,2,2-Trifluoro)ethyl-2-[(4-amino)-1,2,5-oxadiazol-3-yl]benzimidazole]
COc1ccc2c(c1)nc(-c1nonc1N)n2CC#N [Compound I-47, 1-Cyanomethyl-2-[(4-amino)-1,2,5-oxadiazol-3-yl]-5/6-methoxy benzimidazole]
Nc1nonc1-c1nc2ccccc2n1-c1ccccc1 [Compound I-50, 1-Phenyl-2-[(4-amino)-1,2,5-oxadiazol-3-yl]benzimidazole]
CC(C)CCn1c(-c2nonc2N)nc2ccccc21 [Compound I-54, 1-(3-Methyl)butyl-2-[(4-amino)-1,2,5-oxadiazol-3-yl]benzimidazole]
CCn1c(-c2nonc2N)nc2ccccc21 [Compound I-55, 4-(1-Ethyl-1H-benzoimidazol-2-yl)-furazan-3-ylamine]
N#CCn1c(-c2nonc2N)nc2c([N+](=O)[O-])cccc21 [Compound I-56, 1-Cyanomethyl-2-[(4-amino)-1,2,5-oxadiazol-3-yl]-4-nitro benzimidazole]
N#CCOc1cccc2c1nc(-c1nonc1N)n2CC#N [Compound I-58, 1-Cyanomethyl-2-[(4-amino)-1,2,5-oxadiazol-3-yl]-4/7-cyanomethoxy benzimidazole]
Nc1cccnc1-c1nc2ccccc2[nH]1 [Compound I-87]
CNc1nccnc1-c1nc2ccccc2n1CC#N [Compound I-90, 3-(1-Cyanomethylbenzimidazol-2-yl)-pyrazin-2-yl methylamine]
CC(C)Cn1c(-c2nc(Cl)cnc2N)nc2ccccc21 [Compound I-96]
CC(C(N)=O)n1c(-c2nonc2N)nc2ccccc21 (stereo not shown) [Compound I-109]
CC(C)Cn1c(-c2nonc2N)nc2cc(O)ccc21 [Compound I-129]
